Experiments:
[1] = test system: arthritis model; assay: Improvement effect on arthritis, sodium iodoacetate knee joint model in SD rats; assay type: in vivo; design: Pathological tissue score (joint): scale not given here; conditions: gavage every day 100 mg/kg/d; 4th week after operation; n = 10
Method: In this example, the improvement effect of compounds 1˜19 prepared in example 1 on arthritic was measured. (1) Animals: SD rats, four rates in one cage, were fed under the conditions of constant temperature (25±2° C.) and illumination control (12 h day/night circulation). The animals were fed with standard feed, and fed for at least 7 days to adapt environment before the experiment. […] (3) SD rats were fasted for 12 hours before operation, and weighed and recorded prior to operation. The blank control group was not treated any more. […] After anesthesia, they were fixed in the supine position. 0.1 ml of 1 g/L sodium iodoacetate solution was injected into the knee joint. From the fifth day, the animals were driven to run for 30 minutes every day, and they were allowed to move freely in the cage the rest of the time. After modeling, indomethacin and compounds 1˜19 were given by gavage every day at the dose of 100 mg/kg/d. The blank control group and the model control group were given equal volume of isotonic saline. At the 4th week after operation, the articular fluid of rats in each group was extracted to measure the content of MMP-13. The rats were killed, and the subchondral bone plate of the inner condyle of the tibia of the right knee was cut and processed into specimens, and pathological scores were made.

[2] = test system: sodium taurocholate-induced pancreatitis model; assay: Improvement effect on pancreatitis, sodium taurocholate-induced model in mice; assay type: in vivo, Blab/c mice; design: Pancreatic histopathological injury score: scale not given here; conditions: 17.5 mg/kg caudal vein 1 h, 3 h and 6 h after model construction; after 24 hours; n = 10
Source text: In this example, the improvement effect of compounds 1 19 prepared in example 1 on […] measured. (1) Animals: Adult and Healthy Male Blab/c Mice, 25 30 g. […] A model was made with sodium taurocholate. […] After anesthesia, the surgical site was sterilized with an alcohol cotton ball. The sterile gauze was placed on the surgical site. A laparotomy was made at the width of two fingers under the xiphoid process. After seeing the liver, an incision was made, the cotton swab soaked in normal saline was stretched into the enterocoelia, the duodenum was sought on the back of the liver, turned out and placed on the sterile gauze, the pancreaticobiliary duct and duodenal papilla were sought, and the needle of 1 mL syringe was used to pierce a hole on the along the direction of the nipple, a 24 G indwelling needle tube was inserted into the pancreatic duct along the nipple, and the common bile duct below the liver was closed with an arterial vascular clip, with a dose of 0.1 mL/100 g and 0.1 mL/min inject sodium taurocholate with a concentration of 3.8% at a flow rate. During this process, pay attention to adding saline to the exposed pancreas and duodenum to keep it moist. After the injection, the tube was slowly taken out and the bile duct was continued to be closed. The main tube was removed from the vascular artery clip 3 minutes later, the duodenum was also accommodated, and the abdominal cavity was sutured in double layers. The blank control group was injected with equal volume of isotonic saline. […] The blank control group and the model control group were given equal volume of isotonic saline. After 24 hours, pancreatic tissue and blood samples were taken, and the pancreatic histopathological injury score and the level of pancreatic amylase in serum were evaluated.

[3] = test system: mouse hepatitis model; assay: Improvement effect on hepatitis, concanavalin A (ConA) mouse hepatitis model; assay type: in vivo, Blab/c mice; conditions: gavage 50 mg/kg, n = 10
Method: In this example, the improvement effect of compounds 1 19 prepared in example 1 on […] measured. (1) Animals: Adult and Healthy Male Blab/c Mice, 25 30 g. […] The blank control group was injected with equal volume of isotonic saline. After modeling, indomethacin and compounds 1 19 were given by gavage every day at the dose of 50 mg/kg. The blank control group and the model control group were given equal volume of isotonic saline. Eyeball blood and liver tissue were taken at 6 h, 12 h, 24 h and 48 h after administration. The levels of serum alanine aminotransferase (ALT) and aspartate aminotransferase (AST) were measured.

Compound	MMP-13 content in joint fluid [1] [mg/L]	Pathological tissue score (joint) [1]	Amylopsin (pancreatic amylase level in serum) [2] [KU/L]	Pancreatic histopathological injury score [2]	Aspartate aminotransferase (AST) ([3]; 6 h after administration) [U/L]	Serum alanine aminotransferase (ALT) ([3]; 6 h after administration) [U/L]	Aspartate aminotransferase (AST) ([3]; 12 h after administration) [U/L]	Serum alanine aminotransferase (ALT) ([3]; 12 h after administration) [U/L]	Serum alanine aminotransferase (ALT) ([3]; 24 h after administration) [U/L]	Aspartate aminotransferase (AST) ([3]; 48 h after administration) [U/L]	Serum alanine aminotransferase (ALT) ([3]; 48 h after administration) [U/L]	Aspartate aminotransferase (AST) ([3]; 24 h after administration) [U/L]
Cn1c(=O)c2c(ncn2C)n(C)c1=O [Caffeine, caffeine, reference compound]	59 ± 8	2.6 ± 0.4	16 ± 2	2.6 ± 0.4	260 ± 31	590 ± 54	860 ± 91	1456 ± 132	2632 ± 321	943 ± 91	1432 ± 152	
CC(C)n1c(=O)c2c(ncn2C)n(C)c1=O [Compound 2, 1-isopropyl-3,7-dimethylxanthine]	92 ± 8	0.3 ± 0.4	4 ± 2	0.6 ± 0.2	53 ± 7	59 ± 8	89 ± 8	98 ± 6	142 ± 12	99 ± 9	112 ± 13	112 ± 10
CC(C)C(=O)NCCn1c(=O)c2c(ncn2C)n(C)c1=O [Compound 17]	99 ± 6	0.5 ± 0.5	10 ± 3	1.5 ± 0.4	65 ± 5	79 ± 8	102 ± 12	145 ± 13	163 ± 16	107 ± 11	142 ± 15	119 ± 12
CCCC(=O)CCn1c(=O)c2c(ncn2C)n(C)c1=O [Compound 18, 1-(2-butyrylethyl)-3,7-dimethylxanthine]	91 ± 8	0.5 ± 0.3	9 ± 2	1.3 ± 0.4	54 ± 7	67 ± 8	98 ± 8	106 ± 11	157 ± 15	117 ± 9	121 ± 13	131 ± 8
CC(C)C(=O)OCCn1c(=O)c2c(ncn2C)n(C)c1=O [Compound 10, 1-(isopropyl acid-2-ethyl)-3,7-dimethylxanthine]	91 ± 8	0.7 ± 0.4	7 ± 5	0.6 ± 0.4	87 ± 9	83 ± 8	167 ± 19	132 ± 13	186 ± 19	176 ± 17	154 ± 17	189 ± 15
CCNCCn1c(=O)c2c(ncn2C)n(C)c1=O [Compound 12, 1-(2-ethylaminoethyl)-3,7-dimethylxanthine]	83 ± 8	0.3 ± 0.4	4 ± 2	0.4 ± 0.5	58 ± 7	76 ± 8	93 ± 9	113 ± 12	162 ± 16	102 ± 9	121 ± 13	121 ± 19
CC(=O)OCCn1c(=O)c2c(ncn2C)n(C)c1=O [Compound 8, 1-(acetic acid-2-ethyl)-3,7-dimethylxanthine]	92 ± 8	0.4 ± 0.5	5 ± 2	0.8 ± 0.4	68 ± 7	67 ± 8	95 ± 8	110 ± 13	172 ± 16	98 ± 9	132 ± 13	122 ± 12
CC(C)n1c(=O)[nH]cc(F)c1=O [Compound 19, 3-isopropyl-5-fluorouracil]	89 ± 6	0.3 ± 0.2	8 ± 2	1.0 ± 0.3	57 ± 7	55 ± 6	92 ± 8	87 ± 6	139 ± 12	101 ± 9	111 ± 13	117 ± 9
CCn1c(=O)c2ncn(C)c2n(C)c1=O [Compound 3, 1-ethyl-3,9-dimethylxanthine]	97 ± 4	0.6 ± 0.3	3 ± 2	0.5 ± 0.2	59 ± 7	67 ± 8	96 ± 8	102 ± 8	152 ± 14	103 ± 9	113 ± 12	114 ± 11
CC(C)n1cnc2c(=O)[nH]cnc21 [Compound 6, 9-isopropyl hypoxanthine]	90 ± 8	0.3 ± 0.4	2 ± 1	0.4 ± 0.1	49 ± 7	56 ± 5	86 ± 8	85 ± 6	136 ± 16	84 ± 8	103 ± 13	103 ± 9
CCn1c(=O)c2c(ncn2CC)n(C)c1=O [Compound 5, 1,7-diethyl-3-methylxanthine]	99 ± 5	0.7 ± 0.3	3 ± 1	0.4 ± 0.2	71 ± 7	73 ± 8	93 ± 8	109 ± 8	136 ± 12	91 ± 9	105 ± 12	101 ± 8

From patent US20260083743A1, “NUCLEOSIDE DERIVATIVE FOR PREVENTING AND TREATING INFLAMMATION AND APPLICATION THEREOF” (WEST CHINA HOSPITAL OF SICHUAN UNIVERSITY, priority 2019, published 2026)
